US6489297B1, “Vasoactive intestinal peptide analogs” (Dabur Research Foundation, priority 2000, dated 2002)
Where a SMILES comes first, the peptide text is derived from it. [ ]: non-standard residue; d: D form. dPhe(4-Cl) = N[C@H](Cc1ccc(Cl)cc1)C(=O)O; Dpg = CCCC(N)(CCC)C(=O)O; Deg = CCC(N)(CC)C(=O)O; Aib = CC(C)(N)C(=O)O

How the values were obtained:
Assay type in all cases: cell-based, human
Settings in all cases: 72 hours
U87MG (glioblastoma) = assay: MTT cytotoxicity assay, U87MG cells
Method: (§1) The cytotoxic activity of synthesized peptides was tested on […] human tumor cell lines namely PA-1 (ovary), SW620 (colon) HuTu80 (duodenum), L132 (lung), U87MG (glioblastoma), KB (oral), MIAPaCa2(pancreas), A549(non small cell lung) and HT-29(colon). The tumor cells were collected at exponential growth phase and resuspended in medium (1.5×10^6 cells/ml in RPMI 1640 containing 10% FBS). 150 μl of medium was added to the wells of a 96-well tissue culture plate (Nunc, Denmark) followed by 30 μl of cell suspension. The plate was left in incubator (37° C., 5% CO2) overnight. 20 μl of the peptide (100 pM to 1 uM concentration) was added to marked wells of the 96-well plate. Each concentration was plated in triplicates. 20 μl of medium alone was added to control wells while wells without cells served as blanks. A total volume of 200 μl was ensured in each well and plate was left in incubator (37° C., 5% CO2). After 72 hours of incubation an MTT assay was performed and percentage cytotoxicity was calculated with respect to control cells. Following Tables show the maximum cytotoxicity achieved on various cell lines.

SW620 (colon) = assay: MTT cytotoxicity assay, SW620 cells
Method: as §1

PA-1 (ovary) = assay: MTT cytotoxicity assay, PA-1 cells
Method: as §1

HuTu80 (duodenum) = assay: MTT cytotoxicity assay, HuTu80 cells
Method: as §1

L132 (lung) = assay: MTT cytotoxicity assay, L132 cells
Method: as §1

KB (oral) = assay: MTT cytotoxicity assay, KB cells
Method: as §1

Compound: CC[C@H](C)[C@H](NC(=O)[C@H](CO)NC(=O)[C@H](CC(N)=O)NC(=O)[C@H](CC(C)C)NC(=O)[C@H](Cc1ccc(O)cc1)NC(=O)[C@H](CCCCN)NC(=O)[C@H](CCCCN)NC(=O)[C@@H](NC(=O)[C@H](C)NC(=O)[C@H](CC(C)C)NC(=O)[C@H](CCC(N)=O)NC(=O)[C@H](CCCCN)NC(=O)[C@H](CCCNC(=N)N)NC(=O)[C@H](CC(C)C)NC(=O)[C@H](CCCNC(=N)N)NC(=O)[C@@H](NC(=O)[C@H](Cc1ccc(O)cc1)NC(=O)[C@H](CC(N)=O)NC(=O)[C@H](CC(=O)O)NC(=O)[C@@H](NC(=O)[C@@H](Cc1ccc(Cl)cc1)NC(=O)[C@@H](NC(=O)C(CC)(CC)NC(=O)[C@H](CC(=O)O)NC(=O)[C@H](CO)NC(=O)[C@@H](N)Cc1c[nH]cn1)C(C)C)[C@@H](C)O)[C@@H](C)O)C(C)C)C(=O)N[C@@H](CC(C)C)C(=O)N[C@@H](CC(N)=O)C(N)=O [SEQ ID NO: 3] (H-HSD[Deg]V[dPhe(4-Cl)]TDNYTRLRKQLAVKKYLNSILN-NH2)
- Percentage cytotoxicity (U87MG (glioblastoma); 100 pM): 11 ± 7.8%
- Percentage cytotoxicity (U87MG (glioblastoma); 1 nM): 16 ± 6.6%
- Percentage cytotoxicity (U87MG (glioblastoma); 10 nM): 28 ± 7.5%
- Percentage cytotoxicity (U87MG (glioblastoma); 100 nM): 26 ± 6.7%
- Percentage cytotoxicity (U87MG (glioblastoma); 1 μM): 25 ± 4.6%
- Percentage cytotoxicity (SW620 (colon); SW620, 100 pM): 15.9 ± 6.6%
- Percentage cytotoxicity (SW620 (colon); SW620, 1 nM): 29 ± 5.6%
- Percentage cytotoxicity (SW620 (colon); SW620, 10 nM): 27 ± 5.5%
- Percentage cytotoxicity (SW620 (colon); SW620, 100 nM): 22 ± 7.3%
- Percentage cytotoxicity (SW620 (colon); SW620, 1 μM): 16 ± 3.4%
- Percentage cytotoxicity (PA-1 (ovary); PA1, 100 pM): 15 ± 4.5%
- Percentage cytotoxicity (PA-1 (ovary); PA1, 1 nM): 29 ± 5.8%
- Percentage cytotoxicity (PA-1 (ovary); PA1, 10 nM): 22 ± 4.5%
- Percentage cytotoxicity (PA-1 (ovary); PA1, 100 nM): 23.5 ± 5.2%
- Percentage cytotoxicity (PA-1 (ovary); PA1, 1 μM): 22.1 ± 4.5%
- Percentage cytotoxicity (HuTu80 (duodenum); HuTu80, 100 pM): 14 ± 7.8%
- Percentage cytotoxicity (HuTu80 (duodenum); HuTu80, 1 nM): 29 ± 6.2%
- Percentage cytotoxicity (HuTu80 (duodenum); HuTu80, 10 nM): 28 ± 4.7%
- Percentage cytotoxicity (HuTu80 (duodenum); HuTu80, 100 nM): 24 ± 7.8%
- Percentage cytotoxicity (HuTu80 (duodenum); HuTu80, 1 μM): 14.5 ± 7.1%
- Percentage cytotoxicity (L132 (lung); L132, 100 pM): 14 ± 5.6%
- Percentage cytotoxicity (L132 (lung); L132, 1 nM): 23 ± 3.5%
- Percentage cytotoxicity (L132 (lung); L132, 10 nM): 29 ± 6.7%
- Percentage cytotoxicity (L132 (lung); L132, 100 nM): 26 ± 6.5%
- Percentage cytotoxicity (L132 (lung); L132, 1 μM): 14 ± 6.5%
- Percentage cytotoxicity (KB (oral); 100 pM): 13 ± 8.5%
- Percentage cytotoxicity (KB (oral); 1 nM): 24.5 ± 9.5%
- Percentage cytotoxicity (KB (oral); 10 nM): 22 ± 8.2%
- Percentage cytotoxicity (KB (oral); 100 nM): 18 ± 8.5%
- Percentage cytotoxicity (KB (oral); 1 μM): 14 ± 3.4%

Compound: CCCC(CCC)(NC(=O)[C@H](CCC(N)=O)NC(=O)[C@H](CCCCN)NC(=O)[C@H](CCCNC(=N)N)NC(=O)[C@H](CC(C)C)NC(=O)[C@H](CCCNC(=N)N)NC(=O)[C@@H](NC(=O)[C@H](Cc1ccc(O)cc1)NC(=O)[C@H](CC(N)=O)NC(=O)[C@H](CC(=O)O)NC(=O)[C@@H](NC(=O)[C@@H](Cc1ccc(Cl)cc1)NC(=O)[C@@H](NC(=O)C(C)(C)NC(=O)[C@H](CC(=O)O)NC(=O)[C@H](CO)NC(=O)[C@@H](N)Cc1c[nH]cn1)C(C)C)[C@@H](C)O)[C@@H](C)O)C(=O)N[C@@H](C)C(=O)N[C@H](C(=O)N[C@@H](CCCCN)C(=O)N[C@@H](CCCCN)C(=O)N[C@@H](Cc1ccc(O)cc1)C(=O)N[C@@H](CC(C)C)C(=O)N[C@@H](CC(N)=O)C(=O)N[C@@H](CO)C(=O)N[C@H](C(=O)N[C@@H](CC(C)C)C(=O)N[C@@H](CC(N)=O)C(N)=O)[C@@H](C)CC)C(C)C [SEQ ID NO: 10, His-Ser-Asp-Aib-Val-4-Cl-D-Phe-Thr-Asp-Asn-Tyr-Thr-Arg-Leu-Arg-Lys-Gln-Dpg-Ala-Val-Lys-Lys-Tyr-Leu-Asn-Ser-Ile-Leu-Asn-NH2] (H-HSD[Aib]V[dPhe(4-Cl)]TDNYTRLRKQ[Dpg]AVKKYLNSILN-NH2)
- Percentage cytotoxicity (U87MG (glioblastoma); 100 pM): 12 ± 5.0%
- Percentage cytotoxicity (U87MG (glioblastoma); 1 nM): 16 ± 7.8%
- Percentage cytotoxicity (U87MG (glioblastoma); 10 nM): 30.1 ± 4.0%
- Percentage cytotoxicity (U87MG (glioblastoma); 100 nM): 29 ± 7.0%
- Percentage cytotoxicity (U87MG (glioblastoma); 1 μM): 29 ± 4.0%
- Percentage cytotoxicity (SW620 (colon); SW620, 100 pM): 17 ± 4.0%
- Percentage cytotoxicity (SW620 (colon); SW620, 1 nM): 30 ± 6.5%
- Percentage cytotoxicity (SW620 (colon); SW620, 10 nM): 29 ± 5.0%
- Percentage cytotoxicity (SW620 (colon); SW620, 100 nM): 24 ± 7.3%
- Percentage cytotoxicity (SW620 (colon); SW620, 1 μM): 16 ± 5.5%
- Percentage cytotoxicity (PA-1 (ovary); PA1, 100 pM): 28 ± 0.0%
- Percentage cytotoxicity (PA-1 (ovary); PA1, 1 nM): 31 ± 6.0%
- Percentage cytotoxicity (PA-1 (ovary); PA1, 10 nM): 26 ± 3.0%
- Percentage cytotoxicity (PA-1 (ovary); PA1, 100 nM): 25 ± 5.0%
- Percentage cytotoxicity (PA-1 (ovary); PA1, 1 μM): 23 ± 6.5%
- Percentage cytotoxicity (HuTu80 (duodenum); HuTu80, 100 pM): 15 ± 7.8%
- Percentage cytotoxicity (HuTu80 (duodenum); HuTu80, 1 nM): 31 ± 7.0%
- Percentage cytotoxicity (HuTu80 (duodenum); HuTu80, 10 nM): 28 ± 5.0%
- Percentage cytotoxicity (HuTu80 (duodenum); HuTu80, 100 nM): 28 ± 8.0%
- Percentage cytotoxicity (HuTu80 (duodenum); HuTu80, 1 μM): 16 ± 4.5%
- Percentage cytotoxicity (L132 (lung); L132, 100 pM): 15 ± 7.0%
- Percentage cytotoxicity (L132 (lung); L132, 1 nM): 28 ± 6.0%
- Percentage cytotoxicity (L132 (lung); L132, 10 nM): 31 ± 6.0%
- Percentage cytotoxicity (L132 (lung); L132, 100 nM): 29 ± 5.5%
- Percentage cytotoxicity (L132 (lung); L132, 1 μM): 17 ± 5.0%
- Percentage cytotoxicity (KB (oral); 100 pM): 12 ± 8.0%
- Percentage cytotoxicity (KB (oral); 1 nM): 32 ± 7.8%
- Percentage cytotoxicity (KB (oral); 10 nM): 26 ± 7.8%
- Percentage cytotoxicity (KB (oral); 100 nM): 27 ± 6.0%
- Percentage cytotoxicity (KB (oral); 1 μM): 30 ± 5.0%

Compound: CCCC(CCC)(NC(=O)[C@H](CCC(N)=O)NC(=O)[C@H](CCCCN)NC(=O)[C@H](CCCNC(=N)N)NC(=O)[C@H](CC(C)C)NC(=O)[C@H](CCCNC(=N)N)NC(=O)[C@@H](NC(=O)[C@H](Cc1ccc(O)cc1)NC(=O)[C@H](CC(N)=O)NC(=O)[C@H](CC(=O)O)NC(=O)[C@@H](NC(=O)[C@H](Cc1ccccc1)NC(=O)[C@@H](NC(=O)C(C)(C)NC(=O)[C@H](CC(=O)O)NC(=O)[C@H](CO)NC(=O)[C@@H](N)Cc1c[nH]cn1)C(C)C)[C@@H](C)O)[C@@H](C)O)C(=O)N[C@@H](C)C(=O)N[C@H](C(=O)N[C@@H](CCCCN)C(=O)N[C@@H](CCCCN)C(=O)N[C@@H](Cc1ccc(O)cc1)C(=O)N[C@@H](CC(C)C)C(=O)N[C@@H](CC(N)=O)C(=O)N[C@@H](CO)C(=O)N[C@H](C(=O)N[C@@H](CC(C)C)C(=O)N[C@@H](CC(N)=O)C(N)=O)[C@@H](C)CC)C(C)C [SEQ ID NO: 9, His-Ser-Asp-Aib-Val-Phe-Thr-Asp-Asn-Tyr-Thr-Arg-Leu-Arg-Lys-Gln-Dpg-Ala-Val-Lys-Lys-Tyr-Leu-Asn-Ser-Ile-Leu-Asn-NH2] (H-HSD[Aib]VFTDNYTRLRKQ[Dpg]AVKKYLNSILN-NH2)
- Percentage cytotoxicity (U87MG (glioblastoma); 100 pM): 11.5 ± 5.0%
- Percentage cytotoxicity (U87MG (glioblastoma); 1 nM): 13.7 ± 3.6%
- Percentage cytotoxicity (U87MG (glioblastoma); 10 nM): 26.7 ± 3.5%
- Percentage cytotoxicity (U87MG (glioblastoma); 100 nM): 18.9 ± 6.5%
- Percentage cytotoxicity (U87MG (glioblastoma); 1 μM): 12.5 ± 6.5%
- Percentage cytotoxicity (SW620 (colon); SW620, 100 pM): 15.9 ± 4.5%
- Percentage cytotoxicity (SW620 (colon); SW620, 1 nM): 28 ± 5.0%
- Percentage cytotoxicity (SW620 (colon); SW620, 10 nM): 27 ± 3.4%
- Percentage cytotoxicity (SW620 (colon); SW620, 100 nM): 21 ± 3.6%
- Percentage cytotoxicity (SW620 (colon); SW620, 1 μM): 16.7 ± 4.1%
- Percentage cytotoxicity (PA-1 (ovary); PA1, 100 pM): 15.5 ± 3.3%
- Percentage cytotoxicity (PA-1 (ovary); PA1, 1 nM): 27.8 ± 4.3%
- Percentage cytotoxicity (PA-1 (ovary); PA1, 10 nM): 25.6 ± 4.5%
- Percentage cytotoxicity (PA-1 (ovary); PA1, 100 nM): 17.4 ± 3.2%
- Percentage cytotoxicity (PA-1 (ovary); PA1, 1 μM): 15.1 ± 2.3%
- Percentage cytotoxicity (HuTu80 (duodenum); HuTu80, 100 pM): 14.6 ± 2.7%
- Percentage cytotoxicity (HuTu80 (duodenum); HuTu80, 1 nM): 28.5 ± 3.2%
- Percentage cytotoxicity (HuTu80 (duodenum); HuTu80, 10 nM): 26 ± 5.5%
- Percentage cytotoxicity (HuTu80 (duodenum); HuTu80, 100 nM): 23 ± 6.0%
- Percentage cytotoxicity (HuTu80 (duodenum); HuTu80, 1 μM): 14.6 ± 5.1%
- Percentage cytotoxicity (L132 (lung); L132, 100 pM): 17 ± 2.3%
- Percentage cytotoxicity (L132 (lung); L132, 1 nM): 20 ± 0.0%
- Percentage cytotoxicity (L132 (lung); L132, 10 nM): 18.9 ± 6.0%
- Percentage cytotoxicity (L132 (lung); L132, 100 nM): 17.5 ± 5.5%
- Percentage cytotoxicity (L132 (lung); L132, 1 μM): 13.6 ± 5.6%
- Percentage cytotoxicity (KB (oral); 100 pM): 13 ± 5.0%
- Percentage cytotoxicity (KB (oral); 1 nM): 21.5 ± 4.5%
- Percentage cytotoxicity (KB (oral); 10 nM): 16.7 ± 3.2%
- Percentage cytotoxicity (KB (oral); 100 nM): 16.7 ± 5.1%
- Percentage cytotoxicity (KB (oral); 1 μM): 10.5 ± 6.5%
